Laboratory results taken from patent US10118930B2, “Piperidinylpyrazolopyrimidinones and their use” (BAYER PHARMA AKTIENGESELLSCHAFT, priority 2015, dated 2018).
Where a name gives a salt, the structure may show the parent alone.

Each molecule was assayed on clot lysis (fibrinolysis) in diluted human citrated plasma, tPA-induced (assay: Plasma-based clot lysis assay (5%)). Conditions: human citrated platelet-poor plasma 5%, fibrinogen 3 μM, CaCl2 10 mM, tPA 0.2 nM, 37° C., OD at 405 nm.
Format: biochemical
Method: B-2. Plasma-based Clot Lysis Assay (5%)
The clot-lysis test system configures the kinetics of clot formation and degradation in vitro and allows quantifying modulation of the process by selected test compounds.
The test compounds were dissolved in 1% acetic acid and further complemented with an equal volume of DMSO. The resulting stock solutions were serially diluted in 0.5% acetic acid/50% DMSO. 1 μL aliquots of these solutions were placed into 384 well microplates (Greiner, black, transparent bottom), followed by 30 μL of diluted human citrated plasma (platelet-poor, final concentration: 5%; supplemented with fibrinogen, final concentration: 3 μM; dilution buffer: 20 mM HEPES, 150 mM NaCl, 0.01% Brij (pH 7)). The reactions were started by addition of 20 μL of CaCl2 (final concentration: 10 mM), and tPA (tissue plasminogen activator, final concentration: 0.2 nM) in dilution buffer, followed by an additional volume of 20 μL dilution buffer for improved mixing. The reactions were incubated at 37° C. […] IC50 values were determined by comparing the resulting time courses with the time course of a blank control reaction.

First: CS(=O)(=O)Cc1noc(-c2cnn3c(C4CCNCC4)cc(=O)[nH]c23)n1 [Example 191, 3-{3-[(methylsulfonyl)methyl]-1,2,4-oxadiazol-5-yl}-7-(piperidin-4-yl)pyrazolo[1,5-a]pyrimidin-5(4H)-one hydrochloride]
Second: O=c1cc(C2CCNCC2)n2ncc(-c3nc(Cc4ccccc4)no3)c2[nH]1 [Example 106, 3-(3-benzyl-1,2,4-oxadiazol-5-yl)-7-(piperidin-4-yl)pyrazolo[1,5-a]pyrimidin-5(4H)-one]
The IC50 of the first is 1.9-fold lower: 34 nM for the first, 63 nM for the second. The first is the more potent here.

`Cc1ccc(NC(=O)c2cnn3c(C4CCNCC4)cc(=O)[nH]c23)cc1C` [Example 85, N-(3,4-dimethylphenyl)-5-oxo-7-(piperidin-4-yl)-4,5-dihydropyrazolo[1,5-a]pyrimidine-3-carboxamide hydrochloride] and `CC(=O)c1cnn2c(C3CCNCC3)cc(=O)[nH]c12` [Example 370, 3-acetyl-7-(piperidin-4-yl)pyrazolo[1,5-a]pyrimidin-5(4H)-one hydrochloride] are within 1.5-fold of each other in IC50: 32 nM for the first, 36 nM for the second.

Compared with `O=c1cc(C2CCNCC2)n2ncc(-c3cccs3)c2[nH]1` [Example 59, 7-(Piperidin-4-yl)-3-(2-thienyl)pyrazolo[1,5-a]pyrimidin-5(4H)-one hydrochloride], `O=c1cc(C2CCNCC2)n2ncc(-c3noc(Cc4ccccc4)n3)c2[nH]1` [Example 228, 3-(5-benzyl-1,2,4-oxadiazol-3-yl)-7-(piperidin-4-yl)pyrazolo[1,5-a]pyrimidin-5(4H)-one hydrochloride] is 2.2-fold higher in IC50: 15 nM for the first, 33 nM for the second. The first is the more potent here.

First: CCCN(CC)C(=O)c1cnn2c(C3CCNCC3)cc(=O)[nH]c12 [Example 96, N-ethyl-5-oxo-7-(piperidin-4-yl)-N-propyl-4,5-dihydropyrazolo[1,5-a]pyrimidine-3-carboxamide hydrochloride]
Second: CCC(C)C(=O)c1cnn2c(C3CCNCC3)cc(=O)[nH]c12 (centres unmarked) [Example 452, 3-(2-methylbutanoyl)-7-(piperidin-4-yl)pyrazolo[1,5-a]pyrimidin-5 (4H)-one hydrochloride]
The IC50 of the first is 4.1-fold higher: 33 nM for the first, 8 nM for the second.

Compared with `CC(C)OC(=O)c1c(C(F)(F)F)nn2c(C3CCNCC3)cc(=O)[nH]c12` [Example 460, Propan-2-yl 5-oxo-7-(piperidin-4-yl)-2-(trifluoromethyl)-4,5-dihydropyrazolo[1,5-a]pyrimidine-3-carboxylate hydrochloride], `Cc1nn2c(C3CCNCC3)cc(=O)[nH]c2c1C(=O)NCC(C)C` [Example 418, N-isobutyl-2-methyl-5-oxo-7-(piperidin-4-yl)-4,5-dihydro-pyrazolo[1,5-a] pyrimidine-3-carboxamide hydrochloride] is 1.9-fold lower in IC50: 59 nM for the first, 31 nM for the second.

`Cc1nn2c(C3CCNCC3)cc(=O)[nH]c2c1-c1nc(C(F)(F)F)no1` [Example 341, 2-methyl-7-(piperidin-4-yl)-3-[3-(trifluoromethyl)-1,2,4-oxadiazol-5-yl]pyrazolo[1,5-a]pyrimidin-5(4H)-one hydrochloride] and `Cc1nn2c(C3CCNCC3)cc(=O)[nH]c2c1-c1nc(-c2ccc(C(F)(F)F)cc2)no1` [Example 442, 2-methyl-7-(piperidin-4-yl)-3-{3-[4-(trifluoromethyl)phenyl]-1,2,4-oxadiazol-5-yl}pyrazolo[1,5-a]pyrimidin-5(4H)-one hydrochloride] are within 1.5-fold of each other in IC50: 34 nM for the first, 27 nM for the second.

Going from `O=c1cc(C2CCNCC2)n2nc3c(c2[nH]1)CCC3` [Example 30, 4-(Piperidin-4-yl)-1,7,8,9-tetrahydro-2H-cyclopenta[3,4]pyrazolo[1,5-a]pyrimidin-2-one hydrochloride] to `O=C(c1cnn2c(C3CCNCC3)cc(=O)[nH]c12)N1CCCC1` [Example 322, 7-(piperidin-4-yl)-3-(pyrrolidin-1-ylcarbonyl)pyrazolo[1,5-a]pyrimidin-5(4H)-one hydrochloride], the IC50 falls from 200 nM to 36 nM (5.6-fold). The second is the more potent here.

Going from `CC(C)CNC(=O)c1cnn2c(C3CCNCC3)cc(=O)[nH]c12` [Example 21, N-Isobutyl-5-oxo-7-(piperidin-4-yl)-4,5-dihydropyrazolo[1,5-a]pyrimidine-3-carboxamide hydrochloride] to `O=C(NCCN1CCOC1=O)c1cnn2c(C3CCNCC3)cc(=O)[nH]c12` [Example 92, 5-oxo-N-[2-(2-oxo-1,3-oxazolidin-3-yl)ethyl]-7-(piperidin-4-yl)-4,5-dihydropyrazolo[1,5-a]pyrimidine-3-carboxamide hydrochloride], the IC50 rises from 14 nM to 33 nM (2.4-fold).

Compared with `O=C(OCC(F)(F)F)c1cnn2c(C3CCNCC3)cc(=O)[nH]c12` [Example 354, 2,2,2-trifluoroethyl 5-oxo-7-(piperidin-4-yl)-4,5-dihydropyrazolo[1,5-a]pyrimidine-3-carboxylate hydrochloride], `O=c1cc(C2CCNCC2)n2nc(C(F)(F)F)cc2[nH]1` [Example 24, 7-(Piperidin-4-yl)-2-(trifluoromethyl)pyrazolo[1,5-a]pyrimidin-5(4H)-one hydrochloride] is 2.2-fold higher in IC50: 27 nM for the first, 59 nM for the second. The first is the more potent here.

`CC1(C)CCN(C(=O)c2cnn3c(C4CCNCC4)cc(=O)[nH]c23)C1` [Example 462, 3-[(3,3-dimethylpyrrolidin-1-yl)carbonyl]-7-(piperidin-4-yl)pyrazolo[1,5-a]pyrimidin-5 (4H)-one hydrochloride] and `CCCCc1nnc(-c2cnn3c(C4CCNCC4)cc(=O)[nH]c23)o1` [Example 295, 3-(5-butyl-1,3,4-oxadiazol-2-yl)-7-(piperidin-4-yl)pyrazolo[1,5-a]pyrimidin-5(4H)-one hydrochloride] are within 1.5-fold of each other in IC50: 34 nM for the first, 35 nM for the second.

`O=c1cc(C2CCNCC2)n2ncc(-c3noc(-c4cc(Cl)cc(Cl)c4)n3)c2[nH]1` [Example 234, 3-[5-(3,5-dichlorophenyl)-1,2,4-oxadiazol-3-yl]-7-(piperidin-4-yl)pyrazolo[1,5-a]pyrimidin-5(4H)-one hydrochloride] and `O=c1cc(C2CCNCC2)n2ncc(-c3nc(Cc4ccc(F)cc4Cl)no3)c2[nH]1` [Example 195, 3-[3-(2-chloro-4-fluorobenzyl)-1,2,4-oxadiazol-5-yl]-7-(piperidin-4-yl)pyrazolo[1,5-a]pyrimidin-5(4H)-one hydrochloride] are the same in IC50: 35 nM for the first, 35 nM for the second.

Going from `Cc1nn2c(C3CCNCC3)cc(=O)[nH]c2c1-c1nc(CCOC(C)(C)C)no1` [Example 302, 3-[3-(2-tert-butoxyethyl)-1,2,4-oxadiazol-5-yl]-2-methyl-7-(piperidin-4-yl)pyrazolo[1,5-a]pyrimidin-5(4H)-one hydrochloride] to `COCCc1noc(-c2c(C)nn3c(C4CCNCC4)cc(=O)[nH]c23)n1` [Example 297, 3-[3-(2-methoxyethyl)-1,2,4-oxadiazol-5-yl]-2-methyl-7-(piperidin-4-yl)pyrazolo[1,5-a]pyrimidin-5(4H)-one hydrochloride], the IC50 rises from 6 nM to 27 nM (4.5-fold). The first is the more potent here.

Compared with `NC(=O)c1c(-c2ccccc2)nn2c(C3CCNCC3)cc(=O)[nH]c12` [Example 41, 5-Oxo-2-phenyl-7-(piperidin-4-yl)-4,5-dihydropyrazolo[1,5-a]pyrimidine-3-carboxamide trifluoroacetate], `CC(C)(C)c1ccc(-c2nnc(-c3cnn4c(C5CCNCC5)cc(=O)[nH]c34)o2)cc1` [Example 179, 3-[5-(4-tert-butylphenyl)-1,3,4-oxadiazol-2-yl]-7-(piperidin-4-yl)pyrazolo[1,5-a]pyrimidin-5 (4H)-one hydrochloride] is 1.9-fold higher in IC50: 19 nM for the first, 37 nM for the second. The first is the more potent here.
